1 molecule from article PMC11395469, “BpfD Is a c-di-GMP Effector Protein Playing a Key Role for Pellicle Biosynthesis in Shewanella oneidensis” (International Journal of Molecular Sciences, 2024) can be followed below.

In the assay the target is T1, BpfD (Shewanella oneidensis, UniProt Q8E9G0).
T1 construct: gene SO_4323; BpfDS, cytoplasmic part (S225 to E639) with degenerated GGDEF and EAL domains, Strep-tagged
T1 sequence (Q8E9G0 225-639): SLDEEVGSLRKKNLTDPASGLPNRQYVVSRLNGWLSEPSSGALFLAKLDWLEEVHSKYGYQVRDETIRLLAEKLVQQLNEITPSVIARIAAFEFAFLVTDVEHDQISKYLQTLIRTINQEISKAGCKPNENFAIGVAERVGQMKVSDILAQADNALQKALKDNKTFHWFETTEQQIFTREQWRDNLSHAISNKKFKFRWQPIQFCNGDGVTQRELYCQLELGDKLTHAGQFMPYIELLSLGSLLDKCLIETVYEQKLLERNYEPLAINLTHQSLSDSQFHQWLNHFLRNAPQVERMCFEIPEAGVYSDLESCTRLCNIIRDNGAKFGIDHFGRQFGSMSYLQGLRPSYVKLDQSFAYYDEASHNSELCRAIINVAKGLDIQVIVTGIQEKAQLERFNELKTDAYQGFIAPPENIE
The assay can be described thus: isothermal titration calorimetry with purified BpfDS; supported by thermal shift assays. The assay is classed as binding. For orientation: In ITC the heat of successive injections is recorded.

On to `Nc1nc2c(ncn2[C@@H]2O[C@@H]3CO[P@](=O)(O)O[C@H]4[C@@H](O)[C@H](n5cnc6c(=O)[nH]c(N)nc65)O[C@@H]4CO[P@](=O)(O)O[C@H]3[C@H]2O)c(=O)[nH]1` [c-di-GMP], for which the dissociation constant Kd (commonly a measure of binding affinity in units of concentration) was determined as 4.38 ± 0.8 µM.
